Experimental data: ChEMBL document CHEMBL2086339 (J Med Chem, 2012)
Values after ≈ are worked out from the molar mass of the structure shown.

Assays:
[1] = Solubility of the compound at pseudo-thermodynamic equilibrium after 24 hrs by UPLC/UV/TOF-MS analysis at pH 7.4; format: physicochemical; details: buffer
[2] = Metabolic stability in rat plasma assessed as compound remaining at 250 uM after 3 hrs by LC-ESI-MS-MS analysis; format: ADME, cell-free; details: read-out: Stability
[3] = Intrinsic clearance in rat liver microsomes assessed per mg of protein at 1 uM by UPLC/TOF-MS analysis; format: ADME, Microsome; details: read-out: CLH
[4] = Cmax in Long Evans rat at 20 mg/kg, po; format: ADME, organism-based; parameters: dose 20 mg/kg, route oral; details: in vivo
[5] = Tmax in Long Evans rat at 20 mg/kg, po; format: ADME, organism-based; parameters: dose 20 mg/kg, route oral; details: in vivo
[6] = AUC (0 to infinity) in Long Evans rat at 20 mg/kg, po; format: ADME, organism-based; parameters: time infinity, dose 20 mg/kg, route oral; details: plasma
[7] = Oral bioavailability in Long Evans rat at 20 mg/kg; format: ADME, organism-based; details: in vivo
[8] = Ratio of drug level in brain to plasma in Long Evans rat at 10 mg/kg, po; format: ADME, organism-based; parameters: dose 10 mg/kg, route oral; details: read-out: BPR
[9] = Cmax in Long Evans rat brain at 10 mg/kg, po; format: ADME, organism-based; parameters: dose 10 mg/kg, route oral

Row | Structure (SMILES) | solubility thermodynamic at 24 h [1] | also measured
1 | COc1ccc(-c2c[nH]c(NC(=O)CCCCN3CCCN(C(C)=O)CC3)n2)cc1 | 193 µM (≈ 79.8 µg/mL) | –
2 | O=C(CCCCN1CCCCC1)Nc1cc(-c2ccncc2)n[nH]1 | 226 µM (≈ 74 µg/mL) | –
3 | COc1ccc(-c2n[nH]c(NC(=O)CCCCN3CCCCC3)c2C)cc1 | 188 µM (≈ 69.7 µg/mL) | –
4 | COc1ccc(-c2cc(NC(=O)CCCCN3CCCCCC3)n[nH]2)cc1 | 133 µM (≈ 49.3 µg/mL) | –
5 | O=C(CCCCN1CCCCC1)Nc1cc(-c2ccc(Br)cc2)n[nH]1 | 144 µM (≈ 58.4 µg/mL) | –
6 | COc1ccc(-c2cc(NC(=O)C(C)CCCN3CCCN(C(C)=O)CC3)[nH]n2)cc1 (stereo unspecified) | 128 µM (≈ 54.7 µg/mL) | remaining at 3 h, 250 µM [2]: > 99%
7 | COc1ccc(-c2cc(NC(=O)CCCCN3CCC(C(N)=O)CC3)[nH]n2)cc1 | 184 µM (≈ 73.5 µg/mL) | –
8 | COc1ccc(-c2n[nH]c(NC(=O)CCCCN3CCCN(C(C)=O)CC3)c2C)cc1 | 151 µM (≈ 64.6 µg/mL) | –
9 | COc1ccc(-c2cc(NC(=O)CCCCN3CCCCC3)[nH]n2)cc1 | 219 µM (≈ 78.1 µg/mL) | –
10 | COc1ccc(-c2cc(NC(=O)CCCCN3CCCN(C(C)=O)CC3)[nH]n2)cc1 | 170 µM (≈ 70.3 µg/mL) | remaining at 3 h, 250 µM [2]: 55%; microsomal CLint at 1 µM [3]: 13 µL/min/mg; Cmax [4]: 180 nM; Tmax [5]: 49.8 min; AUC(0-inf) [6]: 1.37 µM·h; bioavailability [7]: 12%; Kp [8]: 0.38; Cmax [9]: 3.7 ng/g
11 | O=C(CCCCN1CCCCC1)Nc1cc(-c2ccco2)n[nH]1 | 250 µM (≈ 79.1 µg/mL) | –

Continued, in another order:

Row | solubility thermodynamic at 24 h [1] | Structure (SMILES) | also measured
12 | 237 µM (≈ 81.6 µg/mL) | O=C(CCCCN1CCCCC1)Nc1cc(-c2ccc(F)cc2)n[nH]1 | –
13 | 153 µM (≈ 56.8 µg/mL) | COc1ccc(-c2cc(NC(=O)CCCCN3CCCNCC3)[nH]n2)cc1 | –
14 | 117 µM (≈ 45.1 µg/mL) | COc1ccc(-c2cc(NC(=O)CCCCN3CCNC(=O)CC3)[nH]n2)cc1 | –
15 | 176 µM (≈ 63.1 µg/mL) | COc1ccc(-c2cc(NC(=O)CCCCN3CCOCC3)[nH]n2)cc1 | –
16 | 157 µM (≈ 61.9 µg/mL) | O=C(CCCCN1CCCCC1)Nc1cc(-c2ccc(C(F)(F)F)cc2)n[nH]1 | –
17 | 213 µM (≈ 75.9 µg/mL) | COc1cccc(-c2cc(NC(=O)CCCCN3CCCCC3)[nH]n2)c1 | –
18 | 176 µM (≈ 65.6 µg/mL) | COc1ccc(-c2cc(NC(=O)CCCCN3CCCOCC3)[nH]n2)cc1 | –
19 | 92 µM (≈ 34.2 µg/mL) | COc1ccc(-c2cc(NC(=O)CCCCN3CCNC(=O)C3)[nH]n2)cc1 | –
20 | 178 µM (≈ 63.5 µg/mL) | COc1ccccc1-c1cc(NC(=O)CCCCN2CCCCC2)[nH]n1 | –
21 | 182 µM (≈ 65.7 µg/mL) | O=C(CCCCN1CCCCC1)Nc1cc(-c2ccc(Cl)cc2)n[nH]1 | –
22 | 198 µM (≈ 73.4 µg/mL) | COc1ccc(-c2cc(NC(=O)CCCCN3CCC(C)CC3)n[nH]2)cc1 | –
